In ChEMBL document CHEMBL5370669, “Isolation and Structure Determination of Akunolides, Macrolide Glycosides from a Marine Okeania sp. Cyanobacterium” (J Nat Prod, 2023):

Legend:
[1] = Selectivity ratio of IC50 for cytotoxicity against human WI-38 cells to IC50 for antitrypanosomal activity against Trypanosoma brucei rhodesiense IL-1501; type: toxicity, cell-based
[2] = test system: Trypanosoma brucei rhodesiense; assay: Antitrypanosomal activity against blood stream form of Trypanosoma brucei rhodesiense IL-1501 assessed as growth inhibition incubated for 69 hrs by alamar blue staining based microplate fluorescence scanner analysis; type: functional, organism-based; conditions: IL-1501, 69 h
[3] = Growth inhibition of human WI-38 cells incubated for 72 hrs by MTT assay; type: toxicity, cell-based

Compound	selectivity ratio [1]	IC50 [2] [µM]	IC50 at 72 h [3] [µM]
C=CCCC/C=C/C=C/[C@H]1OC(=O)C[C@@H]2O[C@H](C[C@H](O)C[C@H](C)C[C@@H](O)C1(C)C)C[C@H](O[C@@H]1OC[C@@H](OC)[C@H](OC)[C@H]1O)C2(C)C	5	11	55
C=CCCC/C=C/C=C/[C@H]1OC(=O)C[C@@H]2O[C@H](C[C@H](O)C[C@H](C)C[C@@H](O)C1(C)C)C[C@H](O[C@@H]1OC[C@@H](OC)[C@H](O)[C@H]1O)C2(C)C	> 15	12	> 150
CCCCC/C=C/C=C/[C@H]1OC(=O)C[C@@H]2O[C@H](C[C@H](O)C[C@H](C)C[C@@H](O)C1(C)C)C[C@H](O[C@@H]1OC[C@@H](OC)[C@H](O)[C@H]1O)C2(C)C		14	49
C#CCCC/C=C/C=C/[C@H]1OC(=O)C[C@@H]2O[C@H](C[C@H](O)C[C@H](C)C[C@@H](O)C1(C)C)C[C@H](O[C@@H]1OC[C@@H](OC)[C@H](OC)[C@H]1O)C2(C)C	> 15	11	> 150
N=C(N)c1ccc(OCCCCCOc2ccc(C(=N)N)cc2)cc1 [PENTAMIDINE]		0.006	
